Common to all, as to format: biochemical
Assay [1] addresses T1, succinate cytochrome c reductase (SDH+CIII) (Apis mellifera, UniProt A0A8U0WTA3+A0A8U0YBJ8+A0A8U1DE73).
T1 sequence (A0A8U1DE73 27-278): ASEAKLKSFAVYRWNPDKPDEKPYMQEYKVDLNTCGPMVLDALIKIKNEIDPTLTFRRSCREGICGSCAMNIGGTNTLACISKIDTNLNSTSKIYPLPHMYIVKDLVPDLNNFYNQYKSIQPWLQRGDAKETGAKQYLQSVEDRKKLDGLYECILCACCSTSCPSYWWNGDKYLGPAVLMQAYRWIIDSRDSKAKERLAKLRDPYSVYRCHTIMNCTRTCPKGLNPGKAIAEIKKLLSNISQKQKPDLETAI
T1 sequence (A0A8U0YBJ8 36-174): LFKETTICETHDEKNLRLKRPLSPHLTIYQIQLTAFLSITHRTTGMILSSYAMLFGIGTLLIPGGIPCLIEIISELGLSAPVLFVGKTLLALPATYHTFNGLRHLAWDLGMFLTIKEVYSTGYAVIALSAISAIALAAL
T1 sequence (A0A8U0WTA3 79-201): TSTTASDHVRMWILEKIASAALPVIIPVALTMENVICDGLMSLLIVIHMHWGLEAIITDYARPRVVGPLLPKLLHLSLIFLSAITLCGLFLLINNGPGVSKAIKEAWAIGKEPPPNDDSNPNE
The assay can be described thus: SCCR activity, honeybee crude mitochondria. As to the method: (§1) A. mellifera individuals (n = 5) were a kind gift from Jacques Kemp (beekeeper; Saint-Rémy-lès-Chevreuse, Yvelines, France). Whole bodies of individuals frozen in dry ice, except heads, were homogenized using a 1 ml glass-glass Potter-Elvehjem homogenizer in an ice-cold medium consisting of 20 mM Tris (pH 7.2), 0.25 M sucrose, 40 mM KCl, 2 mM EGTA, and 1 mg/ml BSA. The homogenate was centrifuged at 1,500 g for 5 min. The mitochondria contained in the supernatant were spun down at 10,000 g for 10 min. The pellet of crude mitochondria was distributed as 20-μl aliquots and kept frozen at -80°C.
(§2) RC enzyme activities were spectrophotometrically measured using a pseudo-double-wavelength spectrophotometer (Cary 60, Agilent). Malonate-sensitive succinate quinone dichlorophenolindophenol (DCPIP) reductase (SQDR), as an indicator of the activity of the isolated SDH enzyme (isolated CII), and glycerol-3-phosphate quinone DCPIP reductase (GQDR), as a measure of the activity of the isolated glycerol-3-phosphate dehydrogenase (G3PDH), were assayed as previously described. […] With this aim, we measured the malonate-sensitive succinate cytochrome c reductase (SDH+CIII), glycerol-3-phosphate cytochrome c reductase (G3PDH+CIII) and antimycin-sensitive quinol cytochrome c reductase (CIII) as previously described.
(§3) The effects of eight different SDHIs (up to 500 μM; S2 Fig) were determined on four different biological materials. Because IC50 are known to be affected by the actual absolute activity of the tested enzyme, these IC50 were quantified using similar levels of SDH enzyme activity during the assay. IC50 values were determined using the AAT Bioquest IC50 calculator tool (https://www.aatbio.com/tools/ic50-calculator).

Assay [2] deals with T2, glycerol-3-phosphate cytochrome c reductase (G3PDH+CIII) (Apis mellifera, UniProt P34845).
T2 sequence (P34845 1-383): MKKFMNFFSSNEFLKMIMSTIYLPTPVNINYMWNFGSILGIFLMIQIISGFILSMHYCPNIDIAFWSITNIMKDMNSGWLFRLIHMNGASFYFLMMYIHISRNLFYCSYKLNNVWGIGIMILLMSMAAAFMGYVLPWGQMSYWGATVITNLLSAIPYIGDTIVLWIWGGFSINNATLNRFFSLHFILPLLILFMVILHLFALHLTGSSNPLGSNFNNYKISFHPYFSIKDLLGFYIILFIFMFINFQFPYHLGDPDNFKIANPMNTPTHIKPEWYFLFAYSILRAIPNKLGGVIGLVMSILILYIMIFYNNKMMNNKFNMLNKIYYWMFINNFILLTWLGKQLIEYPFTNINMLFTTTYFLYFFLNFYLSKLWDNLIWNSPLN
Briefly: GCCR activity, honeybee crude mitochondria. How it is done: as §1, §2, §3

The target in assay [3] is T3, glycerol-3-phosphate cytochrome c reductase (G3PDH+CIII) (Botrytis cinerea, UniProt Q18ND9).
T3 sequence (Q18ND9 1-391): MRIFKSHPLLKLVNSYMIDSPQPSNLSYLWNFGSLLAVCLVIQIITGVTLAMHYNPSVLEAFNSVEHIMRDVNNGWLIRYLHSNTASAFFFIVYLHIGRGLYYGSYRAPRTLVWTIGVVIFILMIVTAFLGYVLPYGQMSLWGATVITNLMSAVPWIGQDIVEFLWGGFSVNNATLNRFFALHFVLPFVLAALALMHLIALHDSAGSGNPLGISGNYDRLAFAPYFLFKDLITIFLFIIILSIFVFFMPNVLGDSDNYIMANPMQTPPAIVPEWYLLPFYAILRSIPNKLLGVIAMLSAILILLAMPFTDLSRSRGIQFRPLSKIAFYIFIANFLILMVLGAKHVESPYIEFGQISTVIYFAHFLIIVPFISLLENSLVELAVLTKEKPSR
The assay can be described thus: GCCR activity, Botrytis cinerea mitochondria. How it is done: The mixed population of B. cinerea fungi used in this study was kindly provided by Dr. Joelle Dupont (Museum National d’Histoire Naturelle, Paris, France). Conidia from Botrytis cinerea were obtained from 15–30 d cultures grown on malt medium agar plates. Mycelial colonies were prepared by seeding conidia from 10 colonies in liquid medium (10 g of glucose, 2 g of KH2PO4, 0.5 g of MgSO47H2O, 1 g of (NH4)2SO4, 2 g of yeast extract and deionized water up to 1 l, pH 6.2). Incubation was performed at 23°C until hyphae totally covered the surface of the bottle. The hyphae (9-cm-diameter disks) were harvested, washed twice with refrigerated distilled water and finally with mitochondria extraction medium containing 20 mM Tris (pH 7.2), 0.25 M sucrose, 40 mM KCl, 2 mM EGTA, 1 mg/ml BSA, and no cysteine. The hyphae were suspended in 150 ml of extraction medium, cut in small pieces (1 cm^2) and then disrupted at high speed for 1×2 sec and at low speed for 2×3 sec using a MultiMoulinex mixer (Moulinex, France). The suspension of disrupted hyphae was then filtered through two layers of nylon cloth (clearance 150 μm). The cloth was washed with 50 ml of extraction medium. After low-speed centrifugation (700 g for 15 min), the mitochondria were collected at 10,000 g for 20 min. The pellet was suspended in 250 μl of extraction medium, aliquoted (± 30 μl) and kept frozen at -80°C.
as §2, §3

One may read the IC50 as the concentration needed to halve the response being measured. Read a low IC50 as inhibition by little substance. With `Cn1cc(C(=O)Nc2ccc(F)cc2-c2ccc(Cl)c(Cl)c2)c(C(F)F)n1` [Bixafen, bixafen], the figures for the half-maximal inhibitory concentration (IC50) in assay [1], in assay [2] and in assay [3] were 3.3 µM, 24.1 µM and 22.5 µM, respectively.

For the compound `Cc1nn(C)c(F)c1C(=O)Nc1ccccc1C(C)CC(C)C` (stereo not drawn) [Penflufen, penflufen], the IC50 in assay [1] was 7.5 µM; in assay [2], > 500 µM; in assay [3] it was 80 µM.

Consider `Cn1cc(C(=O)Nc2ccccc2-c2cc(F)c(F)c(F)c2)c(C(F)F)n1` [Fluxapyroxad, fluxapyroxad], for which the IC50 stood at 11.7 µM in assay [1], 205 µM in assay [2] and 60 µM in assay [3].

For the compound `CC(C)C1C2CCC1c1c(NC(=O)c3cn(C)nc3C(F)F)cccc12` (stereo not drawn) [Isopyrazam, isopyrazam], the IC50 in assay [1] turned out to be 5.1 µM; in assay [2] it was 97 µM; in assay [3], 27.9 µM.

These data come from PMC6837341, “Evolutionarily conserved susceptibility of the mitochondrial respiratory chain to SDHI pesticides and its consequence on the impact of SDHIs on human cultured cells” (PLoS ONE, 2019).
